# In patent US20240082212A1, “USE OF MDMA FOR TREATMENT OF STRESS-RELATED DISORDERS” (priority 2022, published 2024):
# Several values for one entry are separate records, joined by “and”; a condition that tells them apart may be missing. Identical values can stand only once. Entries after “also recorded” stand apart in the source; their conditions may differ.
# Key:
# [1] = target: Serotonin 5-HT2A (Homo sapiens, UniProt P28223); experiment: Eurofins Panlabs radioligand binding panel, serotonin 5-HT2A; settings: 10 uM
# [2] = target: T1, Serotonin 5-HT2C (Homo sapiens, UniProt P28335); experiment: biochemical; assay type: binding; settings: 10 µM
# T1 sequence (P28335 33-458): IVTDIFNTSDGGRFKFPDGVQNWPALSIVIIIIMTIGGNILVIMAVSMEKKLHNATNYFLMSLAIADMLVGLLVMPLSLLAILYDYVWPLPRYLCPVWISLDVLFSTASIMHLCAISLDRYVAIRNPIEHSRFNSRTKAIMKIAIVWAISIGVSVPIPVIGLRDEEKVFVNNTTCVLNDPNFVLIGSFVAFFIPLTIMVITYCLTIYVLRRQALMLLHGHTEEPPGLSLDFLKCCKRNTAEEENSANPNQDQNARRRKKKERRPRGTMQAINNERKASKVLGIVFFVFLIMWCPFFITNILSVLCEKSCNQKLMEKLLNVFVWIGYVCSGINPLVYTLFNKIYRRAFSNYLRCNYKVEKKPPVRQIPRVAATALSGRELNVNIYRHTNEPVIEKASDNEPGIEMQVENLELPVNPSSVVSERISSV
# [3] = tested on: CD (Sprague Dawley) rats; experiment: Rat functional observation battery (FOB) neurobehavioral evaluation after cumulative SC dosing; assay type: in vivo
# Procedure: The observations were assessed through a rat functional observation battery (FOB) and continuous physiological measurements on the day of cumulative dosing, which are provided in further detail below.
# Methods. A total of 42 adult male CD® (Sprague Dawley) rats (Charles River Laboratories) were surgically implanted with DSI radiotelemetry devices by personnel at Charles River Laboratories Raleigh, NC, per their test site SOPs. Telemetry devices supported continuous recording of temperature, activity, blood pressure and heart rate. Telemeterized rats were shipped to the Charles River Laboratories testing facility (Mattawan, MI) and acclimated to the environment for at least 1 week prior to experimentation. Animals were pair-housed in solid bottom cages with nonaromatic bedding. On the dosing day, animals were singly housed and then returned to the paired cohort following the dosing/telemetry recording phase. Diet (Lab Diet® Certified Rodent Diet #5CR4) and tap water via an automatic water system were available ad libitum, except during designated procedures. Temperature and humidity were maintained according to the Testing Facility SOP. Animals were randomized into treatment groups using a standard, by weight, measured value randomization procedure. Body weight was determined for each rat prior to dosing.
# As illustrated in the Table, a total of 36 rats were included in the study. The vehicle and 2 test article doses were administered in a volume of 1 mL/kg to each of 3 groups of n=12 telemeterized rats via subcutaneous injection four times on a given day, followed by neurobehavioral evaluations. This series was repeated 3 times on study. Each group received all 3 dose levels of the applicable test or control article in ascending order with a 1-week washout between dose levels.
# Mortality/cage side clinical observations were conducted for all study animals at least twice daily beginning upon receipt through termination, except on days of receipt and termination where frequency was at least once daily. Detailed clinical observations were conducted for all study animals prior to each of the four cumulative doses in a series. Individual body weights were conducted for all study animals at transfer, prior to randomization, on the day of dosing on each of the 3 cycles of dosing. The body weights recorded at transfer and prior to randomization are not reported but are maintained in the study file. Veterinary care was available throughout the course of the study, and animals were examined by the veterinary staff as needed based on clinical signs or other changes. All animals were provided with HydroGel the night prior to their respective dosing days to potentially mitigate any animal welfare issues related to fluid loss/dehydration.
# Neurobehavioral evaluations (blinded) were conducted for all study animals 1 hour following the last (4th) cumulative dose of the series. The neurobehavioral parameters evaluated included: activity measurements (arousal/alertness, posture/body carriage, stereotypy, rearing, and appearance), autonomic measurements (exophthalmus, lacrimation, erected fur, pupil response, salivation, defecation, and palpebral closure/ptosis), excitability measurements (vocalizations, startle response, ease of removal, handling reactivity, and convulsions), neuromuscular measurements (gait/mobility, grip strength/response, air righting reflex, tremor, and body tone), physiological measurements (respiration and body temperature), and sensorimotor measurements (touch response/tactile reflex and thermal response).
# [4] = Rat brain monoamine and metabolite concentrations 1 week after cumulative SC dosing; settings: for 5-HIAA mean brain concentration / 5-HT mean brain concentration: frontal cortex; for 5-HIAA mean brain concentration / 5-HT mean brain concentration / DA mean brain concentration / DOPAC mean brain concentration / HVA mean brain concentration: male rat; for DA mean brain concentration / DOPAC mean brain concentration / HVA mean brain concentration: striatum
# [5] = 1 h after last of 4 hourly SC injections, R-MDMA and racemic MDMA 10, 20 mg/kg/day, S-MDMA 5, 10 mg/kg/day
# [6] = 1 h after last of 4 hourly SC injections, racemic MDMA 10, 20 mg/kg/day, S-MDMA 5, 10 mg/kg/day
# [7] = FOB, cumulative SC dosing, dose groups stated in the value, listed as Rac-MDMA
# [8] = FOB, cumulative SC dosing, dose groups stated in the value, listed as Rac.-MDMA
# [9] = 1 week after 4 hourly SC injections of 2.5 mg/kg
# [10] = 1 week after 4 hourly SC injections of 5 mg/kg
# [11] = 1 week after 4 hourly SC injections of 5 mg/kg, 5 mg/kg
# [12] = 1 week after 4 hourly SC injections of 10 mg/kg, N=2
# [13] = 1 week after 4 hourly SC injections of 10 mg/kg, N=2, 10 mg/kg
# Serotonin 5-HT2A, sequence (P28223 whole entry): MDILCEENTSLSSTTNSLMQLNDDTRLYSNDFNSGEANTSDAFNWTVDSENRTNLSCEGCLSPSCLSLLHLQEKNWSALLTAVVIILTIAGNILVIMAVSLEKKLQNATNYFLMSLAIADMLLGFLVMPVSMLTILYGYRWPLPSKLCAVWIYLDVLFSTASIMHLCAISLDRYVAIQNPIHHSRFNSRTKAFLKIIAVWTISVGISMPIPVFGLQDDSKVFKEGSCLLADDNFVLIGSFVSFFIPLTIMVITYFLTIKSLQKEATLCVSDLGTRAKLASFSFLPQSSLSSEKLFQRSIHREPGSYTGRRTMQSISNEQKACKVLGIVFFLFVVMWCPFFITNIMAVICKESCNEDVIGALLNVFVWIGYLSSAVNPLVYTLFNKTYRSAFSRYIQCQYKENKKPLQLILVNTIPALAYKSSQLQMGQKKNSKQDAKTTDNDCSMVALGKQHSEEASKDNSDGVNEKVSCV
structure (smiles),measurement,setting,value
"CNC(C)Cc1ccc2c(c1)OCO2 (racemic) [Racemic MDMA, 3,4-methylenedioxymethamphetamine]",% inhibition of binding or activity,[1],59%
same,% inhibition of binding or activity,[2],87%
same,arousal/alertness and rearing,[3]; [5],general increase in overall levels of arousal/alertness and rearing
same,ease of removal from the home cage and handling reactivity (excitability),[3]; [5],Dose-dependent increased difficulty in removal from the home cage and increased handling reactivity
same,forelimb grip strength,[3]; [5],dose-dependent statistically significant decreases in forelimb grip strength
same,salivation and erected fur (autonomic),[3]; [5],Dose-dependent increased salivation and erected fur
same,unkempt appearance,[3]; [5],increased incidence of unkempt appearance in a dose-dependent manner
same,general gait/mobility changes,[3]; [6],General gait/mobility changes were only observed
same,respiration,[3]; [6],Rapid respiration was noted
same,Rank Order Activity Measurement Effects,[3]; [7],Rac-MDMA (0 mg/kg/day) < Rac-MDMA (20 mg/kg/day) < Rac-MDMA (10 mg/kg/day); also recorded: S-MDMA (10 mg/kg/day) = R-MDMA (10 mg/kg/day) = Rac-MDMA (10 mg/kg/day)
same,Rank Order Autonomic Measurement Effects,[3]; [7],R-MDMA (20 mg/kg/day) < S-MDMA (10 mg/kg/day) < Rac-MDMA (20 mg/kg/day); also recorded: Rac-MDMA (0 mg/kg/day) < Rac-MDMA (10 mg/kg/day) < Rac-MDMA (20 mg/kg/day); also recorded: R-MDMA (10 mg/kg/day) < S-MDMA (10 mg/kg/day) = Rac-MDMA (20 mg/kg/day)
same,Rank Order Excitability Measurement Effects,[3]; [7],S-MDMA (5 mg/kg/day) < Rac-MDMA (10 mg/kg/day); also recorded: R-MDMA (20 mg/kg/day) = S-MDMA (10 mg/kg/day) < Rac-MDMA (20 mg/kg/day); also recorded: Rac-MDMA (0 mg/kg/day) < Rac-MDMA (10 mg/kg/day) < Rac-MDMA (20 mg/kg/day); also recorded: R-MDMA (10 mg/kg/day) < S-MDMA (10 mg/kg/day) < Rac-MDMA (20 mg/kg/day)
same,Rank Order Neuromuscular Measurement Effects,[3]; [7],R-MDMA (20 mg/kg/day) = S-MDMA (10 mg/kg/day) < Rac-MDMA (20 mg/kg/day); also recorded: Rac-MDMA (0 mg/kg/day) < Rac-MDMA (10 mg/kg/day) < Rac-MDMA (20 mg/kg/day); also recorded: R-MDMA (10 mg/kg/day) < S-MDMA (10 mg/kg/day) < Rac-MDMA (20 mg/kg/day)
same,Rank Order Physiological Measurement Effects,[3]; [7],R-MDMA (20 mg/kg/day) < S-MDMA (10 mg/kg/day) = Rac-MDMA (20 mg/kg/day); also recorded: Rac-MDMA (0 mg/kg/day) < Rac-MDMA (10 mg/kg/day) < Rac-MDMA (20 mg/kg/day); also recorded: R-MDMA (10 mg/kg/day) < S-MDMA (10 mg/kg/day) = Rac-MDMA (20 mg/kg/day)
same,Rank Order Sensorimotor Measurement Effects,[3]; [7],S-MDMA (5 mg/kg/day) < Rac-MDMA (10 mg/kg/day) < R-MDMA (10 mg/kg/day); also recorded: S-MDMA (10 mg/kg/day) < Rac-MDMA (20 mg/kg/day) < R-MDMA (20 mg/kg/day); also recorded: Rac-MDMA (0 mg/kg/day) < Rac-MDMA (10 mg/kg/day) < Rac-MDMA (20 mg/kg/day)
same,Rank Order Activity Measurement Effects,[3]; [8],S-MDMA (5 mg/kg/day) < R-MDMA (10 mg/kg/day) < Rac.-MDMA (10 mg/kg/day); also recorded: Rac.-MDMA (20 mg/kg/day) < S-MDMA (10 mg/kg/day) < R-MDMA (20 mg/kg/day); also recorded: Rac.-MDMA (20 mg/kg/day) < S-MDMA (10 mg/kg/day) < R-MDMA (10 mg/kg/day)
same,Rank Order Autonomic Measurement Effects,[3]; [8],R-MDMA (10 mg/kg/day) < S-MDMA (5 mg/kg/day) < Rac.-MDMA (10 mg/kg/day)
same,Rank Order Excitability Measurement Effects,[3]; [8],R-MDMA (10 mg/kg/day) < S-MDMA (5 mg/kg/day) < Rac.-MDMA (10 mg/kg/day)
same,Rank Order Neuromuscular Measurement Effects,[3]; [8],R-MDMA (10 mg/kg/day) < S-MDMA (5 mg/kg/day) < Rac.-MDMA (10 mg/kg/day)
same,Rank Order Physiological Measurement Effects,[3]; [8],R-MDMA (10 mg/kg/day) < S-MDMA (5 mg/kg/day) < Rac.-MDMA (10 mg/kg/day)
same,thermal response times,"[3]; at levels at least two-fold that of vehicle-treated groups, 1 h after last of 4 hourly SC injections",Statistically significant increases in thermal response times
same,neuromuscular observations,[3]; primarily noted at 20 mg/kg/day racemic-MDMA (4 hourly SC injections),"observations of ataxia, hunched posture, and tip-toe walking"
same,frontal cortex 5-HT (serotonin) compared to vehicle,"[4]; cumulative SC, 5 mg/kg/injection, 1 week after dosing",significantly reduced frontal cortex 5-HT concentrations
same,5-HIAA mean brain concentration,[4]; [9],368.17 ng/g
same,5-HT mean brain concentration,[4]; [9],183.90 ng/g
same,5-HIAA mean brain concentration,[4]; [10],234.63 ng/g
same,5-HT mean brain concentration,[4]; [11],88.38 ng/g and 88.38 b** n* p* ng/g
same,5-HIAA mean brain concentration,[4]; [12],235.00 ng/g
same,5-HT mean brain concentration,[4]; [12],100.85 ng/g
same,DA mean brain concentration,[4]; [9],5956.67 ng/g
same,DOPAC mean brain concentration,[4]; [9],1811.00 ng/g
same,HVA mean brain concentration,[4]; [9],706.83 ng/g
same,DA mean brain concentration,[4]; [10],5190.63 ng/g
same,HVA mean brain concentration,[4]; [10],577.00 ng/g
same,DOPAC mean brain concentration,[4]; [11],1962.75 ng/g and 1962.75 h** ng/g
same,DA mean brain concentration,[4]; [12],7405.00 ng/g
same,DOPAC mean brain concentration,[4]; [13],2015.00 ng/g and 2015.00 h* ng/g
same,HVA mean brain concentration,[4]; [13],923.50 ng/g and 923.50 d**h* ng/g
